Common to all, as to assay: relative viability (nuclei count vs DMSO), 5 days (fraction); higher = more cells survive
Compound in the experiment “Venetoclax + Bortezomib”: CC1(C)CCC(CN2CCN(c3ccc(C(=O)NS(=O)(=O)c4ccc(NCC5CCOCC5)c([N+](=O)[O-])c4)c(Oc4cnc5[nH]ccc5c4)c3)CC2)=C(c2ccc(Cl)cc2)C1 [Venetoclax] + CC(C)C[C@H](NC(=O)[C@H](Cc1ccccc1)NC(=O)c1cnccn1)B(O)O [Bortezomib] (partner 0.002 µM)
The method in brief: (§1)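 Five library-drug doses in √10 steps were combined with a fixed anchor-drug dose, or a single drug was given alone, by pin tool to lung cancer cell lines in 1536-well plates the day after seeding. Nuclei were stained and counted after 5 days. Relative viability is the nuclei count in treated wells over that in vehicle wells, taken as the median of duplicate plates.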

Compound in the experiment “Venetoclax + OSI-027”: CC1(C)CCC(CN2CCN(c3ccc(C(=O)NS(=O)(=O)c4ccc(NCC5CCOCC5)c([N+](=O)[O-])c4)c(Oc4cnc5[nH]ccc5c4)c3)CC2)=C(c2ccc(Cl)cc2)C1 [Venetoclax] + COc1cccc2cc(-c3nc([C@H]4CC[C@H](C(=O)O)CC4)n4ncnc(N)c34)[nH]c12 [OSI-027] (partner 0.5 µM)
The method in brief: as §1

Compound in the experiment “Venetoclax + Phenformin”: CC1(C)CCC(CN2CCN(c3ccc(C(=O)NS(=O)(=O)c4ccc(NCC5CCOCC5)c([N+](=O)[O-])c4)c(Oc4cnc5[nH]ccc5c4)c3)CC2)=C(c2ccc(Cl)cc2)C1 [Venetoclax] + N=C(N)NC(=N)NCCc1ccccc1 [Phenformin] (partner 250 µM)
The method in brief:
as §1

Compound in the experiment “Selumetinib + Foretinib”: Cn1cnc2c(F)c(Nc3ccc(Br)cc3Cl)c(C(=O)NOCCO)cc21 [Selumetinib] + COc1cc2c(Oc3ccc(NC(=O)C4(C(=O)Nc5ccc(F)cc5)CC4)cc3F)ccnc2cc1OCCCN1CCOCC1 [Foretinib] (partner 0.25 µM)
The method in brief: as §1

With UMC-11, the relative viability with Venetoclax + Bortezomib (first compound 0.01 µM) is 0.625; with Venetoclax + Bortezomib (first compound 0.03162 µM) it was 0.889; with Venetoclax + Bortezomib (first compound 0.1 µM), 0.604; with Venetoclax + Bortezomib (first compound 0.3162 µM) it was 0.732; in the experiment with Venetoclax + Bortezomib (first compound 1 µM), 0.691; in the experiment with Venetoclax + OSI-027 (first compound 0.01 µM) it was 0.439. Also, the relative viability with Venetoclax + OSI-027 (first compound 0.03162 µM) turned out to be 0.46; with Venetoclax + OSI-027 (first compound 0.1 µM) it was 0.465; in the experiment with Venetoclax + OSI-027 (first compound 0.3162 µM), 0.461; with Venetoclax + OSI-027 (first compound 1 µM), 0.428; in the experiment with Venetoclax + Phenformin (first compound 0.01 µM), 0.286; with Venetoclax + Phenformin (first compound 0.03162 µM), 0.319. Moreover, the relative viability with Venetoclax + Phenformin (first compound 0.1 µM) is 0.32; with Venetoclax + Phenformin (first compound 0.3162 µM) it was 0.291; with Venetoclax + Phenformin (first compound 1 µM) it was 0.292; with Selumetinib + Foretinib (first compound 0.02 µM) it was 1.05; with Selumetinib + Foretinib (first compound 0.06325 µM), 1.11; with Selumetinib + Foretinib (first compound 0.2 µM), 1.05. For the same cell line, the relative viability in the experiment with Selumetinib + Foretinib (first compound 0.6325 µM) was 1.04.
